Experimental data as given in ChEMBL document CHEMBL3351514, “Design and synthesis of new of 3-(benzo[d]isoxazol-3-yl)-1-substituted pyrrolidine-2, 5-dione derivatives as anticonvulsants” (Eur J Med Chem, 2014).
Calls of active or inactive are those of the source. No cut-off for these calls is given here.

Test system: not listed separately
Test: Neurotoxicity in ip dosed albino Wistar rat at 4 hrs by rotorod test
Format: toxicity, organism-based
Settings: in vivo
Work on `O=C1CC(c2noc3ccccc23)C(=O)N1c1ccccc1` (stereo unspecified) yielded an MTD at 4 h of 300 mg/kg. For `COc1ccc(N2C(=O)CC(c3noc4ccccc34)C2=O)cc1` (stereo unspecified), the MTD at 4 h was 300 mg/kg. For `O=C1CC(c2noc3ccccc23)C(=O)N1C1CCCCC1` (stereo unspecified), the MTD at 4 h was 300 mg/kg. Compound `O=C1CC(c2noc3ccccc23)C(=O)N1c1ccc(F)cc1` (stereo unspecified) has an MTD at 4 h of 300 mg/kg. Compound `CCCCN1C(=O)CC(c2noc3ccccc23)C1=O` (stereo unspecified) has an MTD at 4 h of 100 mg/kg. Compound `O=C1NC(=O)C(c2ccccc2)(c2ccccc2)N1` [PHENYTOIN] has an MTD at 4 h of 100 mg/kg.

Test system: Mus musculus
Test: Anticonvulsant activity in ip dosed albino Swiss mouse assessed as protection against maximal electroshock-induced seizures at 0.5 hr
Format: functional
Settings: not given
In the case of `O=C1CC(c2noc3ccccc23)C(=O)N1c1ccccc1` (stereo unspecified), the MED50 is reported as 30 mg/kg. With `COc1ccc(N2C(=O)CC(c3noc4ccccc34)C2=O)cc1` (stereo unspecified) the MED50 was 100 mg/kg. In the case of `O=C1CC(c2noc3ccccc23)C(=O)N1C1CCCCC1` (stereo unspecified), the MED50 is reported as 300 mg/kg. Compound `O=C1CC(c2noc3ccccc23)C(=O)N1c1ccc(F)cc1` (stereo unspecified) has an MED50 of 30 mg/kg. `O=C1NC(=O)C(c2ccccc2)(c2ccccc2)N1` [PHENYTOIN] gave an MED50 of 30 mg/kg.

Test system: Mus musculus
Test: Anticonvulsant activity in albino Swiss mouse assessed as protection against maximal electroshock-induced seizures at 300 mg/kg, ip at 4 hrs
Format: functional, organism-based
Set-up: dose 300 mg/kg
Settings: not given
In the case of `CCCCN1C(=O)CC(c2noc3ccccc23)C1=O` (stereo unspecified), the Activity is reported as “inactive”. For `O=C1NC(=O)C(c2ccccc2)(c2ccccc2)N1` [PHENYTOIN], the Activity was “inactive”.

Test system: Rattus norvegicus
Test: Anticonvulsant activity in albino Wistar rat assessed as protection against maximal electroshock-induced seizures at 30 mg/kg, po at 2 hrs
Format: functional
Settings: not given
Work on `O=C1CC(c2noc3ccccc23)C(=O)N1c1ccccc1` (stereo unspecified) yielded an Activity of 50%. In the case of `COc1ccc(N2C(=O)CC(c3noc4ccccc34)C2=O)cc1` (stereo unspecified), the Activity is reported as 50%. `O=C1CC(c2noc3ccccc23)C(=O)N1c1ccc(F)cc1` (stereo unspecified) showed an Activity of 100%. `O=C1NC(=O)C(c2ccccc2)(c2ccccc2)N1` [PHENYTOIN] gave an Activity of 75%.

Test system: Rattus norvegicus
Test: Anticonvulsant activity in albino Wistar rat assessed as protection against subcutaneous pentylenetetrazol-induced seizures at 50 mg/kg, po at 0.5 hr
Format: functional
Settings: not given
In the case of `COc1ccc(N2C(=O)CC(c3noc4ccccc34)C2=O)cc1` (stereo unspecified), the Activity is reported as 25%. `O=C1CC(c2noc3ccccc23)C(=O)N1C1CCCCC1` (stereo unspecified) gave an Activity of 25%. Compound `O=C1CC(c2noc3ccccc23)C(=O)N1c1ccc(F)cc1` (stereo unspecified) has an Activity of 25%. Compound `CCCCN1C(=O)CC(c2noc3ccccc23)C1=O` (stereo unspecified) has an Activity of 25%.

Test system: not listed separately
Test: Neurotoxicity in po dosed albino Wistar rat at 1 hr by rotorod test
Format: toxicity, organism-based
Settings: in vivo
For `O=C1NC(=O)C(c2ccccc2)(c2ccccc2)N1` [PHENYTOIN], the TD50 at 1 h was > 100 mg/kg.

Test system: not listed separately
Test: in vivo
Settings: Wistar, rat, po
Description: Protective index, ratio of TD50 for neurotoxicity in po dosed albino Wistar rat to ED50 for anticonvulsant activity in po dosed albino Wistar rat assessed as protection against maximal electroshock-induced seizures at 1 hr
With `O=C1NC(=O)C(c2ccccc2)(c2ccccc2)N1` [PHENYTOIN] the selectivity ratio at 1 h was > 3.55.

Test system: Rattus norvegicus
Test: Anticonvulsant activity in po dosed albino Wistar rat assessed as protection against maximal electroshock-induced seizures at 1 hr
Format: functional
Settings: not given
In the case of `O=C1NC(=O)C(c2ccccc2)(c2ccccc2)N1` [PHENYTOIN], the ED50 is reported as 28.1 mg/kg.

Test system: not listed separately
Test: Neurotoxicity in po dosed albino Wistar rat at 4 hrs by rotorod test
Format: toxicity, organism-based
Settings: in vivo
With `O=C1CC(c2noc3ccccc23)C(=O)N1C1CCCCC1` (stereo unspecified) the TD50 at 4 h was > 150 mg/kg.

Test system: Rattus norvegicus
Test: Anticonvulsant activity in albino Wistar rat assessed as protection against subcutaneous pentylenetetrazol-induced seizures at 50 mg/kg, po at 1 hr
Format: functional
Settings: not given
With `COc1ccc(N2C(=O)CC(c3noc4ccccc34)C2=O)cc1` (stereo unspecified) the Activity was 25%. With `O=C1CC(c2noc3ccccc23)C(=O)N1C1CCCCC1` (stereo unspecified) the Activity was 25%. `O=C1CC(c2noc3ccccc23)C(=O)N1c1ccc(F)cc1` (stereo unspecified) gave an Activity of 25%. In the case of `CCCCN1C(=O)CC(c2noc3ccccc23)C1=O` (stereo unspecified), the Activity is reported as 25%.

Test system: Rattus norvegicus
Test: Anticonvulsant activity in albino Wistar rat assessed as protection against maximal electroshock-induced seizures at 30 mg/kg, po at 0.25 hr
Format: functional
Settings: not given
Work on `O=C1CC(c2noc3ccccc23)C(=O)N1c1ccccc1` (stereo unspecified) yielded an Activity of 25%. In the case of `COc1ccc(N2C(=O)CC(c3noc4ccccc34)C2=O)cc1` (stereo unspecified), the Activity is reported as 25%. Work on `O=C1CC(c2noc3ccccc23)C(=O)N1c1ccc(F)cc1` (stereo unspecified) yielded an Activity of 25%. For `O=C1NC(=O)C(c2ccccc2)(c2ccccc2)N1` [PHENYTOIN], the Activity was 25%.

Test system: Mus musculus
Test: Anticonvulsant activity in albino Swiss mouse assessed as assessed as protection against subcutaneous pentylenetetrazol-induced seizures at 300 mg/kg, ip at 0.5 hr
Format: functional, organism-based
Set-up: dose 300 mg/kg
Settings: not given
With `O=C1NC(=O)C(c2ccccc2)(c2ccccc2)N1` [PHENYTOIN] the Activity was “inactive”.

Test system: Mus musculus
Test: Anticonvulsant activity in ip dosed albino Swiss mouse assessed as protection against maximal electroshock-induced seizures at 4 hrs
Format: functional
Settings: not given
Work on `O=C1CC(c2noc3ccccc23)C(=O)N1c1ccccc1` (stereo unspecified) yielded an MED50 of 100 mg/kg. `COc1ccc(N2C(=O)CC(c3noc4ccccc34)C2=O)cc1` (stereo unspecified) showed an MED50 of 300 mg/kg. `O=C1CC(c2noc3ccccc23)C(=O)N1C1CCCCC1` (stereo unspecified) gave an MED50 of 300 mg/kg. Compound `O=C1CC(c2noc3ccccc23)C(=O)N1c1ccc(F)cc1` (stereo unspecified) has an MED50 of 30 mg/kg.

Test system: Mus musculus
Test: Anticonvulsant activity in albino Swiss mouse assessed as assessed as protection against subcutaneous pentylenetetrazol-induced seizures at 300 mg/kg, ip at 4 hrs
Format: functional, organism-based
Set-up: dose 300 mg/kg
Settings: not given
With `COc1ccc(N2C(=O)CC(c3noc4ccccc34)C2=O)cc1` (stereo unspecified) the Activity was “inactive”. In the case of `O=C1CC(c2noc3ccccc23)C(=O)N1c1ccc(F)cc1` (stereo unspecified), the Activity is reported as “inactive”. In the case of `CCCCN1C(=O)CC(c2noc3ccccc23)C1=O` (stereo unspecified), the Activity is reported as “inactive”. With `O=C1NC(=O)C(c2ccccc2)(c2ccccc2)N1` [PHENYTOIN] the Activity was “inactive”.

Test system: Mus musculus
Test: Anticonvulsant activity in albino Swiss mouse assessed as protection against maximal electroshock-induced seizures at 300 mg/kg, ip at 0.5 hr
Format: functional, organism-based
Set-up: dose 300 mg/kg
Settings: not given
For `CCCCN1C(=O)CC(c2noc3ccccc23)C1=O` (stereo unspecified), the Activity was “inactive”.

Test system: not listed separately
Test: Neurotoxicity in po dosed albino Wistar rat at 2 hrs by rotorod test
Format: toxicity, organism-based
Settings: in vivo
With `O=C1CC(c2noc3ccccc23)C(=O)N1c1ccc(F)cc1` (stereo unspecified) the TD50 at 2 h was > 500 mg/kg.

Test system: Rattus norvegicus
Test: Anticonvulsant activity in albino Wistar rat assessed as protection against subcutaneous pentylenetetrazol-induced seizures at 50 mg/kg, po at 2 hrs
Format: functional
Settings: not given
For `O=C1CC(c2noc3ccccc23)C(=O)N1C1CCCCC1` (stereo unspecified), the Activity was 25%. For `O=C1CC(c2noc3ccccc23)C(=O)N1c1ccc(F)cc1` (stereo unspecified), the Activity was 25%.

Test system: Rattus norvegicus
Test: Anticonvulsant activity in albino Wistar rat assessed as protection against maximal electroshock-induced seizures at 30 mg/kg, po at 0.5 hr
Format: functional
Settings: not given
`O=C1CC(c2noc3ccccc23)C(=O)N1c1ccccc1` (stereo unspecified) showed an Activity of 25%. In the case of `COc1ccc(N2C(=O)CC(c3noc4ccccc34)C2=O)cc1` (stereo unspecified), the Activity is reported as 25%. With `O=C1CC(c2noc3ccccc23)C(=O)N1c1ccc(F)cc1` (stereo unspecified) the Activity was 50%. `O=C1NC(=O)C(c2ccccc2)(c2ccccc2)N1` [PHENYTOIN] gave an Activity of 100%.

Test system: Rattus norvegicus
Test: Anticonvulsant activity in albino Wistar rat assessed as protection against subcutaneous pentylenetetrazol-induced seizures at 50 mg/kg, po at 4 hrs
Format: functional
Settings: not given
Work on `O=C1CC(c2noc3ccccc23)C(=O)N1C1CCCCC1` (stereo unspecified) yielded an Activity of 25%.

Test system: Rattus norvegicus
Test: Anticonvulsant activity in po dosed albino Wistar rat assessed as protection against subcutaneous pentylenetetrazol-induced seizures at 4 hrs
Format: functional
Settings: not given
With `O=C1CC(c2noc3ccccc23)C(=O)N1C1CCCCC1` (stereo unspecified) the ED50 was 42.3 mg/kg.

Test system: not listed separately
Test: Neurotoxicity in ip dosed albino Wistar rat at 0.5 hr by rotorod test
Format: toxicity, organism-based
Settings: in vivo
In the case of `O=C1CC(c2noc3ccccc23)C(=O)N1c1ccccc1` (stereo unspecified), the MTD at 0.5 h is reported as 100 mg/kg. In the case of `COc1ccc(N2C(=O)CC(c3noc4ccccc34)C2=O)cc1` (stereo unspecified), the MTD at 0.5 h is reported as 100 mg/kg. `O=C1CC(c2noc3ccccc23)C(=O)N1C1CCCCC1` (stereo unspecified) gave an MTD at 0.5 h of 300 mg/kg. For `O=C1CC(c2noc3ccccc23)C(=O)N1c1ccc(F)cc1` (stereo unspecified), the MTD at 0.5 h was 300 mg/kg. Compound `CCCCN1C(=O)CC(c2noc3ccccc23)C1=O` (stereo unspecified) has an MTD at 0.5 h of 100 mg/kg. With `O=C1NC(=O)C(c2ccccc2)(c2ccccc2)N1` [PHENYTOIN] the MTD at 0.5 h was 100 mg/kg.

Test system: not listed separately
Test: Protective index, ratio of TD50 for neurotoxicity in po dosed albino Wistar rat to ED50 for anticonvulsant activity in po dosed albino Wistar rat assessed as protection against maximal electroshock-induced seizures at 2 hrs
Format: toxicity, organism-based
Settings: in vivo, read-out: Ratio TD50/ED50
With `O=C1CC(c2noc3ccccc23)C(=O)N1c1ccc(F)cc1` (stereo unspecified) the selectivity ratio at 2 h was > 33.5.

Test system: Rattus norvegicus
Test: Anticonvulsant activity in po dosed albino Wistar rat assessed as protection against maximal electroshock-induced seizures at 2 hrs
Format: functional
Settings: not given
With `O=C1CC(c2noc3ccccc23)C(=O)N1c1ccc(F)cc1` (stereo unspecified) the ED50 was 14.9 mg/kg.

Test system: Rattus norvegicus
Test: Anticonvulsant activity in albino Wistar rat assessed as protection against maximal electroshock-induced seizures at 30 mg/kg, po at 1 hr
Format: functional
Settings: not given
Compound `O=C1CC(c2noc3ccccc23)C(=O)N1c1ccccc1` (stereo unspecified) has an Activity of 50%. In the case of `COc1ccc(N2C(=O)CC(c3noc4ccccc34)C2=O)cc1` (stereo unspecified), the Activity is reported as 25%. For `O=C1CC(c2noc3ccccc23)C(=O)N1c1ccc(F)cc1` (stereo unspecified), the Activity was 75%. `O=C1NC(=O)C(c2ccccc2)(c2ccccc2)N1` [PHENYTOIN] gave an Activity of 75%.

Test system: Mus musculus
Test: Anticonvulsant activity in ip dosed albino Swiss mouse assessed as assessed as protection against subcutaneous pentylenetetrazol-induced seizures at 0.5 hr
Format: functional
Settings: not given
With `O=C1CC(c2noc3ccccc23)C(=O)N1c1ccccc1` (stereo unspecified) the MED50 was 300 mg/kg. `COc1ccc(N2C(=O)CC(c3noc4ccccc34)C2=O)cc1` (stereo unspecified) showed an MED50 of 100 mg/kg. For `O=C1CC(c2noc3ccccc23)C(=O)N1C1CCCCC1` (stereo unspecified), the MED50 was 100 mg/kg. `O=C1CC(c2noc3ccccc23)C(=O)N1c1ccc(F)cc1` (stereo unspecified) gave an MED50 of 100 mg/kg. With `CCCCN1C(=O)CC(c2noc3ccccc23)C1=O` (stereo unspecified) the MED50 was 100 mg/kg.

Test system: not listed separately
Test: Protective index, ratio of TD50 for neurotoxicity in po dosed albino Wistar rat to ED50 for anticonvulsant activity in po dosed albino Wistar rat assessed as protection against subcutaneous pentylenetetrazol-induced seizures at 4 hrs
Format: toxicity, organism-based
Settings: in vivo, read-out: Ratio TD50/ED50
With `O=C1CC(c2noc3ccccc23)C(=O)N1C1CCCCC1` (stereo unspecified) the selectivity ratio at 4 h was > 3.54.

Test system: Mus musculus
Test: Anticonvulsant activity in ip dosed albino Swiss mouse assessed as assessed as protection against subcutaneous pentylenetetrazol-induced seizures at 4 hrs
Format: functional
Settings: not given
`O=C1CC(c2noc3ccccc23)C(=O)N1c1ccccc1` (stereo unspecified) gave an MED50 of 300 mg/kg. `O=C1CC(c2noc3ccccc23)C(=O)N1C1CCCCC1` (stereo unspecified) gave an MED50 of 100 mg/kg.

Test system: Rattus norvegicus
Test: Anticonvulsant activity in albino Wistar rat assessed as protection against maximal electroshock-induced seizures at 30 mg/kg, po at 4 hrs
Format: functional
Settings: not given
Compound `O=C1CC(c2noc3ccccc23)C(=O)N1c1ccccc1` (stereo unspecified) has an Activity of 50%. With `COc1ccc(N2C(=O)CC(c3noc4ccccc34)C2=O)cc1` (stereo unspecified) the Activity was 25%. `O=C1CC(c2noc3ccccc23)C(=O)N1c1ccc(F)cc1` (stereo unspecified) showed an Activity of 100%. For `O=C1NC(=O)C(c2ccccc2)(c2ccccc2)N1` [PHENYTOIN], the Activity was 75%.
